Data: patent US4946844A, “Optically active benzoquinolizine compounds, process for preparing same, and antibacterial preparation containing same as active ingredient” (Tokyo Tanabe Co., Ltd., priority 1987, dated 1990)

How the values were obtained:
[1] = test system: Bacillus subtilis ATCC 6633; assay: In vitro antibacterial activity (minimum inhibitory concentration); type: cell-based; details: 37° C.; for Minimum inhibitory concentration: 20 hours, hydrochloride monohydrate
Experimental: (§1) The in vitro antimicrobial activity of a typical compound in accordance with the present invention (hereinafter referred to as the present compound) was evaluated in terms of minimum inhibitory concentrations for various Gram-positive and Gram-negative bacteria. The Gram-positive bacteria used as test microorganisms included Bacillus subtilis, Staphylococcus aureus, Staphylococcus epidermidis and Streptococcus pyogenes, and the Gram-negative bacteria used as test microorganisms included Escherichia coli, Enterobacter cloacae, Klebsiella pneumoniae, Proteus vulgaris, Pseudomonas aeruginosa, Serratia marcescens, Salmonella enteritidis and Morganella morganii. The minimum inhibitory concentrations (for the test microorganisms cultured at 37° C. for 20 hours) were determined according to the standard method prescribed by the Japanese Chemotherapeutic Society (Journal of the Japanese Chemotherapeutic Society, Vol. 29, No. 1, p. 76, 1981). As the present compound, there was used (+)-9-fluoro-5-methyl-8-(4-methyl-1-piperazinyl)-6,7-dihydro-1,7-dioxo1H,5H-benzo[ij]quinolizine-2-carboxylic acid hydrochloride monohydrate which had been prepared in Example 1 described later. For purposes of comparison, control compounds were evaluated in the same manner as described above. These control compounds comprised the optically active (-)-isomer of the aforesaid compound (which had been prepared in Reference Example described later) and the racemate thereof.

[2] = test system: Enterobacter cloacae 963; assay: as above; type: cell-based; details: 37° C.; for Minimum inhibitory concentration: 20 hours, hydrochloride monohydrate
Experimental: as §1

[3] = test system: Escherichia coli NIHJ JC-2; assay: as above; type: cell-based; details: 37° C.; for Minimum inhibitory concentration: 20 hours, hydrochloride monohydrate
Experimental: as §1

[4] = test system: Klebsiella pneumoniae PCI 602; assay: as above; type: cell-based; details: 37° C.; for Minimum inhibitory concentration: 20 hours, hydrochloride monohydrate
Experimental: as §1

[5] = test system: Morganella morganii IFO 3848; assay: as above; type: cell-based; details: 37° C.; for Minimum inhibitory concentration: 20 hours, hydrochloride monohydrate
Experimental: as §1

[6] = test system: Proteus vulgaris ATCC 13315; assay: as above; type: cell-based; details: 37° C.; for Minimum inhibitory concentration: 20 hours, hydrochloride monohydrate
Experimental: as §1

[7] = test system: Pseudomonas aeruginosa PAO 1; assay: as above; type: cell-based; details: 37° C.; for Minimum inhibitory concentration: 20 hours, hydrochloride monohydrate
Experimental: as §1

[8] = test system: Salmonella enteritidis G 14; assay: as above; type: cell-based; details: 37° C.; for Minimum inhibitory concentration: 20 hours, hydrochloride monohydrate
Experimental: as §1

[9] = test system: Serratia marcescens IAM 1184; assay: as above; type: cell-based; details: 37° C.; for Minimum inhibitory concentration: 20 hours, hydrochloride monohydrate
Experimental: as §1

[10] = test system: Staphylococcus aureus FDA 209P JC-1; assay: as above; type: cell-based; details: 37° C.; for Minimum inhibitory concentration: 20 hours, hydrochloride monohydrate
Experimental: as §1

[11] = test system: Staphylococcus epidermidis IAM 1296; assay: as above; type: cell-based; details: 37° C.; for Minimum inhibitory concentration: 20 hours, hydrochloride monohydrate
Experimental: as §1

[12] = test system: Streptococcus pyogenes ATCC 19615; assay: as above; type: cell-based; details: 37° C.; for Minimum inhibitory concentration: 20 hours, hydrochloride monohydrate
Experimental: as §1

[13] = Solubility in water; type: physicochemical
Experimental: The solubilities of the present compound (which had been prepared in Example 1) and its racemate in water were determined.

[14] = test system: various Gram-positive and Gram-negative bacteria; assay: In vitro antibacterial activity over all test microorganisms (comparison of potency); type: cell-based; details: versus racemate
Experimental: as §1, with “These control compounds comprised the optically active (-)-isomer of the aforesaid compound (which had been prepared in Reference Example described later) and the racemate thereof.” left out

Structure (SMILES): CC1CC(=O)c2c(N3CCN(C)CC3)c(F)cc3c(=O)c(C(=O)O)cn1c23.Cl.O (racemic) [Racemate, (±)-9-fluoro-5-methyl-8-(4-methyl-1-piperazinyl)-6,7-dihydro-1,7-dioxo-1H,5H-benzo[ij]quinolizine-2-carboxylic acid hydrochloride monohydrate]
- MIC ([1]; Bacillus subtilis, ATCC6633, 20 h): 0.1 µg/mL
- MIC ([2]; Enterobacter cloacae, 963, 20 h): 0.2 µg/mL
- MIC ([3]; Escherichia coli, NIHJJC2, 20 h): 0.2 µg/mL
- MIC ([4]; Klebsiella pneumoniae, PCI602, 20 h): 0.1 µg/mL
- MIC ([5]; Morganella morganii, IFO3848, 20 h): 0.1 µg/mL
- MIC ([6]; Proteus vulgaris, ATCC13315, 20 h): 0.2 µg/mL
- MIC ([7]; Pseudomonas aeruginosa, PAO1, 20 h): 1.56 µg/mL
- MIC ([8]; Salmonella enterica, ENTERITIDIS, 20 h): 0.78 µg/mL
- MIC ([9]; Serratia marcescens, IAM1184, 20 h): 1.56 µg/mL
- MIC ([10]; Staphylococcus aureus, FDA209P, 20 h): 0.39 µg/mL
- MIC ([11]; Staphylococcus epidermidis, IAM1296, 20 h): 1.56 µg/mL
- MIC ([12]; Streptococcus pyogenes, ATCC19615, 20 h): 6.25 µg/mL
- solubility [13]: ~7 mg/mL

Structure (SMILES): CC1CC(=O)c2c(N3CCN(C)CC3)c(F)cc3c(=O)c(C(=O)O)cn1c23.Cl.O (single isomer, unassigned; (+)) [Present compound, (+)-9-fluoro-5-methyl-8-(4-methyl-1-piperazinyl)-6,7-dihydro-1,7-dioxo-1H,5H-benzo[ij]quinolizine-2-carboxylic acid hydrochloride monohydrate]
- Minimum inhibitory concentration [1]: 0.05 µg/mL
- Minimum inhibitory concentration [2]: 0.10 µg/mL
- Minimum inhibitory concentration [3]: 0.10 µg/mL
- Minimum inhibitory concentration [4]: ≤ 0.025 µg/mL
- Minimum inhibitory concentration [5]: ≤ 0.025 µg/mL
- Minimum inhibitory concentration [6]: 0.10 µg/mL
- Minimum inhibitory concentration [7]: 0.78 µg/mL
- Minimum inhibitory concentration [8]: 0.20 µg/mL
- Minimum inhibitory concentration [9]: 0.39 µg/mL
- Minimum inhibitory concentration [10]: 0.20 µg/mL
- Minimum inhibitory concentration [11]: 0.39 µg/mL
- Minimum inhibitory concentration [12]: 0.78 µg/mL
- antibacterial activity relative to the racemate (compound [I]) [14]: about twice as potent
- solubility [13]: ~180 mg/mL
- solubility relative to the racemate ([13]; versus racemate): about 25 times

Structure (SMILES): CC1CC(=O)c2c(N3CCN(C)CC3)c(F)cc3c(=O)c(C(=O)O)cn1c23.Cl.O (single isomer, unassigned; (-)) [(-)-isomer, (-)-9-fluoro-5-methyl-8-(4-methyl-1-piperazinyl)-6,7-dihydro-1,7-dioxo-1H,5H-benzo[ij]quinolizine-2-carboxylic acid hydrochloride monohydrate]
- Minimum inhibitory concentration [1]: 1.56 µg/mL
- Minimum inhibitory concentration [2]: 3.13 µg/mL
- Minimum inhibitory concentration [3]: 3.13 µg/mL
- Minimum inhibitory concentration [4]: 0.78 µg/mL
- Minimum inhibitory concentration [5]: 0.78 µg/mL
- Minimum inhibitory concentration [6]: 0.78 µg/mL
- Minimum inhibitory concentration [7]: 12.5 µg/mL
- Minimum inhibitory concentration [8]: 1.56 µg/mL
- Minimum inhibitory concentration [9]: 3.13 µg/mL
- Minimum inhibitory concentration [10]: 25 µg/mL
- Minimum inhibitory concentration [11]: 50 µg/mL
- Minimum inhibitory concentration [12]: > 100 µg/mL
